Common to all, as to format: biochemical
One experiment has as its target CDK2/Cyclin A2 (Homo sapiens (Human), UniProt P24941). Description: Kinase activity assay (Caliper Mobility Shift Assay), CDK2/Cyclin A2. How it is done:
(§1) The inhibitory effect of compounds against the kinase CDK4/cyclin D3 was detected by Caliper Mobility Shift Assay method. The final concentration of the compounds to be tested was set at 10 concentrations starting from 1 uM by 3-fold serial dilution. 5 μL of compounds at 5-fold final concentration and 10 μL of CDK4/cyclin D3 kinase solution at a final concentration of 10 nM was added to a 384-well reaction plate, respectively. The plate was pre-incubated for 10 min at room temperature (with negative control wells containing 10 uL of kinase buffer and 5 uL of 5% DMSO; positive control wells containing 10 μL of kinase solution and 5 uL of 5% DMSO). The reaction was initiated by adding 10 μL of ATP at a final concentration of 250 uM and the corresponding substrate peptide mixture at room temperature for 150 minutes. 30 uL of stop detection solution containing EDTA was added to stop the kinase reaction. Caliper EZ Reader was used to read the conversion rate. Conversion inhibition rate %=(average conversion rate of positive control %−conversion rate of sample %)/(average conversion rate of positive control %−average conversion rate of negative control %). wherein: negative control wells represent the conversion rate readings of wells without enzymatic activity; positive control wells represent conversion readings for wells with no compound inhibition. The log(inhibitor) vs. response—Variable slope of the analysis software GraphPad Prism 5 was used with log concentration value as the X-axis and the percent inhibition rate as the Y-axis to fit the dose-response curve, the IC50 value of each compound on the enzyme activity was thus obtained. Calculation formula: Y=Bottom+(Top−Bottom)/(1+10^((Log IC50−X)*HillSlope)).
(§2) The IC50 values and inhibitory activities of compounds of the present disclosure on CDK6/Cyclin D3, CDK2/Cyclin A2, and CDK9/cyclin T1 were tested in a similar manner.

Another experiment concerns the target CDK4/cyclin D3 (Homo sapiens (Human), UniProt P11802). Description: Kinase activity assay (Caliper Mobility Shift Assay), CDK4/cyclin D3. To be noted: 10 nM kinase, 250 uM ATP. How it is done: as §1
The target of a further experiment is CDK6/Cyclin D3 (Homo sapiens (Human), UniProt Q00534). The experiment in a line: Kinase activity assay (Caliper Mobility Shift Assay), CDK6/Cyclin D3. How it is done:
as §1, §2

Sequence of CDK4/cyclin D3 (P11802 whole entry, species assumed): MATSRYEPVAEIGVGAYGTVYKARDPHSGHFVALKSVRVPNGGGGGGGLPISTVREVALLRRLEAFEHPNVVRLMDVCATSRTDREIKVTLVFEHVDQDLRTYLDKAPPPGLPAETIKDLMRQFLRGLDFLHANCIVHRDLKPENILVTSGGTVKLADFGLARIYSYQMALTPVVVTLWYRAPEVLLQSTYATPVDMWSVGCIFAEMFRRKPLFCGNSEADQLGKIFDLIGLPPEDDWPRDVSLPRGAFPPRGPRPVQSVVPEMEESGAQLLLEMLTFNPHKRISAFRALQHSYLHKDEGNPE
Sequence of CDK4/cyclin D3 (P30281 whole entry partner, species assumed): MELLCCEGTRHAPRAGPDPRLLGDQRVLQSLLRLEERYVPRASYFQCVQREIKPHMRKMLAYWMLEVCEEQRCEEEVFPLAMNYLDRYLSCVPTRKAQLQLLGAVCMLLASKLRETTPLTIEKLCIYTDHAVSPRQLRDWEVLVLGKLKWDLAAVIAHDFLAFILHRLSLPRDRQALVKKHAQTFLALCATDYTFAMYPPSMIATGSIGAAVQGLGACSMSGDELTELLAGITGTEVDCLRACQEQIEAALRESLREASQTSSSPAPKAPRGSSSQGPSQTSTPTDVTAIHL
Sequence of CDK6/Cyclin D3 (Q00534 whole entry, species assumed): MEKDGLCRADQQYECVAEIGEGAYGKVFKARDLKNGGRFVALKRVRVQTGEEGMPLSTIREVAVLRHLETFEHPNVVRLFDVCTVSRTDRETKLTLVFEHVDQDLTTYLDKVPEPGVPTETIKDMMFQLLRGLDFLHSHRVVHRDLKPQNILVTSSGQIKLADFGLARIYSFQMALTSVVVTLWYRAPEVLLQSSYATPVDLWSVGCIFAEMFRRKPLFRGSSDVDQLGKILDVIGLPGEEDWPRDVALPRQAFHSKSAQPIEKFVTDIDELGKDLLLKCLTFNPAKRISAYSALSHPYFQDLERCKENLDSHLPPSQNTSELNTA
Sequence of CDK6/Cyclin D3 (P30281 whole entry partner, species assumed): as the sequence (P30281 whole entry partner, species assumed) above

What is called IC50 is the point on the concentration scale where inhibition reaches its midpoint. Regarding `CC(C)n1nnc2ccc3cnc(NC4CCC(NS(C)(=O)=O)CC4)nc3c21` (stereo not drawn) [II.11, N-(4-((1-isopropyl-1H-[1,2,3]triazolo[4,5-h]quinazolin-8-yl)amino)cyclohexyl)methanesulfonamide], the IC50 at CDK2/Cyclin A2 was 1 nM; at CDK4/cyclin D3, 8 nM; at CDK6/Cyclin D3, 15 nM.

Regarding `C[C@@]1(O)CCC[C@H]1n1nnc2ccc3cnc(NC4CCN(S(C)(=O)=O)CC4)nc3c21` [II.32, (1R,2R)-1-methyl-2-(8-((1-(methylsulfonyl)piperidin-4-yl)amino)-1H-[1,2,3]triazolo[4,5-h]quinazolin-1-yl)cyclopentan-1-ol], the IC50 on CDK2/Cyclin A2 came to 0.2 nM; at CDK4/cyclin D3, 5 nM; on CDK6/Cyclin D3 it was 9 nM.

With `CC(C)c1noc2c(C(F)F)cc3cnc(NC4CCN(S(C)(=O)=O)CC4)nc3c12` [I.9, 6-(difluoromethyl)-9-isopropyl-N-(1-(methylsulfonyl)piperidin-4-yl)isoxazolo[5,4-h]quinazolin-2-amine], the figures for the IC50 at CDK2/Cyclin A2, on CDK4/cyclin D3 and on CDK6/Cyclin D3 were 5 nM, 6 nM and 7 nM, respectively.

In the case of `CC(C)c1noc2ccc3cnc(NC4CCNCC4)nc3c12` [I.4, 9-isopropyl-N-(piperidin-4-yl)isoxazolo[5,4-h]quinazolin-2-amine], the IC50 amounted to 249 nM at CDK2/Cyclin A2, 47 nM on CDK4/cyclin D3 and 68 nM on CDK6/Cyclin D3.

For the molecule `[2H]c1cc2cnc(NC3CCN(S(C)(=O)=O)CC3)nc2c2c1nnn2C(C)C` [II.25, 1-isopropyl-N-(1-(methylsulfonyl)piperidin-4-yl)-1H-[1,2,3]triazolo [4,5-h]quinazolin-4-d-8-amine], the IC50 at CDK2/Cyclin A2 is 0.2 nM; on CDK4/cyclin D3, 3 nM; on CDK6/Cyclin D3 it was 5 nM.

In the case of `COCCS(=O)(=O)N1CCC(Nc2ncc3ccc4nnn(C(C)C)c4c3n2)CC1` [II.18, 1-isopropyl-N-(1-((2-methoxyethyl)sulfonyl)piperidin-4-yl)-1H-[1,2,3]triazolo[4,5-h]quinazolin-8-amine], the figures for the IC50 at CDK2/Cyclin A2, at CDK4/cyclin D3 and on CDK6/Cyclin D3 were 1 nM, 3 nM and 8 nM, respectively.

In the case of `C[C@@]1(O)CCC[C@H]1c1noc2c(C(F)F)cc3cnc(NC4CCN(S(C)(=O)=O)CC4)nc3c12` [I.14, (1R,2S)-2-(6-(difluoromethyl)-2-((1-(methylsulfonyl)piperidin-4-yl)amino)isoxazolo[5,4-h]quinazolin-9-yl)-1-methylcyclopentan-1-ol], the IC50 on CDK2/Cyclin A2 was 2 nM; on CDK4/cyclin D3, 5 nM; at CDK6/Cyclin D3, 8 nM.

Consider `CC(C)n1nnc2ccc3cnc(NC4CCN(S(=O)(=O)C(F)F)CC4)nc3c21` [II.19, N-(1-((difluoromethyl)sulfonyl)piperidin-4-yl)-1-isopropyl-1H-[1,2,3]triazolo[4,5-h]quinazolin-8-amine], for which the IC50 at CDK2/Cyclin A2 was 0.4 nM; at CDK4/cyclin D3 it was 3 nM; at CDK6/Cyclin D3 it was 4 nM.

In the case of `CC(C)n1nnc2c(C(F)F)cc3cnc(NC4CCN(S(C)(=O)=O)CC4)nc3c21` [II.27, 4-(difluoromethyl)-1-isopropyl-N-(1-(methylsulfonyl)piperidin-4-yl)-1H-[1,2,3]triazolo[4,5-h]quinazolin-8-amine], the IC50 stood at 0.2 nM on CDK2/Cyclin A2, 3 nM on CDK4/cyclin D3 and 5 nM on CDK6/Cyclin D3.

For the molecule `[2H]c1cc2cnc(NC3CCN(S(C)(=O)=O)CC3)nc2c2c(C(C)C)noc12` [I.11, 9-isopropyl-N-(1-(methylsulfonyl)piperidin-4-yl)isoxazolo[5,4-h]quinazolin-6-d-2-amine], the IC50 was found to be 1 nM on CDK2/Cyclin A2, 10 nM on CDK4/cyclin D3 and 24 nM on CDK6/Cyclin D3.

`CC(C)n1nnc2ccc3cnc(NC4CCN(S(C)(=O)=O)CC4)nc3c21` [II.14, 1-isopropyl-N-(1-(methylsulfonyl)piperidin-4-yl)-1H-[1,2,3] triazolo[4,5-h]quinazolin-8-amine]: the IC50 on CDK2/Cyclin A2 is 0.2 nM; on CDK4/cyclin D3 it was 3 nM; at CDK6/Cyclin D3 it was 5 nM.

Take `CC(C)n1nnc2cc(F)c3cnc(NC4CCN(S(C)(=O)=O)CC4)nc3c21` [II.22, 5-fluoro-1-isopropyl-N-(1-(methylsulfonyl)piperidin-4-yl)-1H-[1,2,3]triazolo[4,5-h]quinazolin-8-amine]: the IC50 turned out to be 0.2 nM at CDK2/Cyclin A2, 3 nM at CDK4/cyclin D3 and 4 nM at CDK6/Cyclin D3.

Turning to `CC(C)c1noc2ccc3cnc(N[C@H]4CC[C@H](Nc5ncccn5)CC4)nc3c12` [I.3, (1R,4R)-N^1-(9-isopropylisoxazolo[5,4-h]quinazolin-2-yl)-N^4-(pyrimidin-2-yl)cyclohexane-1,4-diamine], the IC50 at CDK2/Cyclin A2 is 258 nM; at CDK4/cyclin D3 it was 26 nM; on CDK6/Cyclin D3 it was 38 nM.

In the case of `CC(C)c1noc2ccc3cnc(NC4CCN(S(C)(=O)=O)CC4)nc3c12` [I.5, 9-isopropyl-N-(1-(methylsulfonyl)piperidin-4-yl)isoxazolo[5,4-h]quinazolin-2-amine], the IC50 on CDK2/Cyclin A2 was determined as 1 nM; at CDK4/cyclin D3 it was 10 nM; on CDK6/Cyclin D3 it was 24 nM.

On to `CC(C)n1nnc2c(Cl)cc3cnc(NC4CCN(S(C)(=O)=O)CC4)nc3c21` [II.23, 4-chloro-1-isopropyl-N-(1-(methylsulfonyl)piperidin-4-yl)-1H-[1,2,3]triazolo[4,5-h]quinazolin-8-amine], for which the half-maximal inhibitory concentration (IC50) on CDK2/Cyclin A2 was found to be 0.4 nM; on CDK4/cyclin D3, 3 nM; on CDK6/Cyclin D3, 9 nM.

As for `CC(C)n1nnc2ccc3cnc(N[C@H]4CC[C@H](N5CCN(C(=O)C6CC6)CC5)CC4)nc3c21` [II.9, Cyclopropyl(4-((1R,4R)-4-((1-isopropyl-1H-[1,2,3]triazolo [4,5-h]quinazolin-8-yl)amino)cyclohexyl)piperazin-1-yl) ketone], the results for the IC50 on CDK2/Cyclin A2, on CDK4/cyclin D3 and at CDK6/Cyclin D3 were 356 nM, 26 nM and 35 nM, respectively.

For `CC(C)n1nnc2ccc3cnc(NC4CCCNC4=O)nc3c21` (stereo not drawn) [II.36, 3-((1-isopropyl-1H-[1,2,3]triazolo[4,5-h]quinazolin-8-yl)amino)piperidin-2-one], the figures for the IC50 on CDK2/Cyclin A2, at CDK4/cyclin D3 and at CDK6/Cyclin D3 were > 500 nM, 253 nM and 446 nM, respectively.

As to `CC(C)n1nnc2c1-c1nc(NC3CCN(S(=O)(=O)C(F)F)CC3)ncc1CC2` [II.39, N-(1-((difluoromethyl)sulfonyl)piperidin-4-yl)-1-isopropyl-4,5-dihydro-1H-[1,2,3]triazolo[4,5-h]quinazolin-8-amine], the IC50 on CDK2/Cyclin A2 came to 0.5 nM; on CDK4/cyclin D3 it was 3 nM; on CDK6/Cyclin D3, 10 nM.

In the case of `C[C@@]1(O)CCC[C@H]1c1noc2ccc3cnc(NC4CCN(S(C)(=O)=O)CC4)nc3c12` [I.13, (1R,2S)-1-methyl-2-(2-((1-(methylsulfonyl)piperidin-4-yl)amino)isoxazolo[5,4-h]quinazolin-9-yl)cyclopentan-1-ol], the IC50 at CDK2/Cyclin A2 came to 1 nM; on CDK4/cyclin D3, 3 nM; on CDK6/Cyclin D3, 6 nM.

`CC(C)c1noc2c(Br)cc3cnc(NC4CCN(S(C)(=O)=O)CC4)nc3c12` [I.8, 6-bromo-9-isopropyl-N-(1-(methylsulfonyl)piperidin-4-yl)isoxazolo[5,4-h]quinazolin-2-amine]: the values for the IC50 on CDK2/Cyclin A2, at CDK4/cyclin D3 and at CDK6/Cyclin D3 were 9 nM, 6 nM and 3 nM, respectively.

In the case of `Cc1cc2cnc(NC3CCN(S(C)(=O)=O)CC3)nc2c2c1nnn2C(C)C` [II.26, 1-isopropyl-4-methyl-N-(1-(methylsulfonyl)piperidin-4-yl)-1H-[1,2,3] triazolo[4,5-h]quinazolin-8-amine], the values for the IC50 at CDK2/Cyclin A2, at CDK4/cyclin D3 and at CDK6/Cyclin D3 were 0.4 nM, 3 nM and 8 nM, respectively.

For the molecule `CC(C)n1nnc2c1-c1nc(NC3CCN(S(=O)(=O)C4CC4)CC3)ncc1CC2` [II.38, N-(1-(cyclopropylsulfonyl)piperidin-4-yl)-1-isopropyl-4,5-dihydro-1H-[1,2,3]triazolo[4,5-h]quinazolin-8-amine], the IC50 is 0.3 nM on CDK2/Cyclin A2, 3 nM on CDK4/cyclin D3 and 7 nM on CDK6/Cyclin D3.

For `CC(C)c1noc2c1-c1nc(NC3CCN(S(C)(=O)=O)CC3)ncc1CC2` [I.15, 9-isopropyl-N-(1-(methylsulfonyl)piperidin-4-yl)-5,6-dihydroisoxazolo[5,4-h]quinazolin-2-amine], the IC50 stood at 2 nM at CDK2/Cyclin A2, 10 nM at CDK4/cyclin D3 and 8 nM at CDK6/Cyclin D3.

Turning to `CC(C)n1nnc2ccc3cnc(N[C@H]4CC[C@H](N(C)C)CC4)nc3c21` [II.6, (1R,4R)-N^1-(1-isopropyl-1H-[1,2,3]triazolo[4,5-h]quinazolin-8-yl)-N^4,N^4-dimethylcyclohexane-1,4-diamine], the values for the IC50 at CDK2/Cyclin A2, at CDK4/cyclin D3 and on CDK6/Cyclin D3 were 35 nM, 10 nM and 12 nM, respectively.

The values above are taken from patent US20230416271A1, “HETEROARYLQUINAZOLINE COMPOUNDS AS PROTEIN KINASE INHIBITORS” (CHENGDU CYNOGEN BIO-PHARMACEUTICAL TECHNOLOGY CO., LTD., priority 2020, published 2023).
